As usually defined, the EC50 is the concentration at which the effect is half-maximal. The low end stands for an effect from little substance, the high end for a need for much substance.

*1 amine or outer side, *2 acyl side, *3 side chain or, on linkers, in order; H or OH if unused. Where a SMILES comes first, the peptide text is derived from it. Side-chain parts run from the residue outwards. The star is where a group is joined. γGlu = O=C(O)[C@H](CCC(=O)[*:2])N[*:1]; Butyryl = CCCC(=O)*

T1 sequence (P47871 26-477): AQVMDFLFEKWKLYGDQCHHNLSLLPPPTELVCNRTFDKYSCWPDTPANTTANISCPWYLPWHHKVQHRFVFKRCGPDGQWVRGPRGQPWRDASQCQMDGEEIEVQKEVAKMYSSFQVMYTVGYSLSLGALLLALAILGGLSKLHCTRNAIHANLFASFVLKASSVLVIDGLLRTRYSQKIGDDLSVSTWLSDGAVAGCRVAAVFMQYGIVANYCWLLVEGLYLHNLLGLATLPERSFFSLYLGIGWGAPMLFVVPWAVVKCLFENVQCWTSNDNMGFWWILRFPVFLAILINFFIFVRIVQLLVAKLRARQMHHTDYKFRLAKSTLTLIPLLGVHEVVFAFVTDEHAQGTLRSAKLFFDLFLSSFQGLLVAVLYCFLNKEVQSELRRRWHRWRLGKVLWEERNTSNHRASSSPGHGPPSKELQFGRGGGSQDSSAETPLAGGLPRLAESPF

The assay has as its target T1, glucagon receptor (Homo sapiens, UniProt P47871).
T1 construct: expressed in transfected cells
In words: Assay (I) Glucagon activity (cAMP biosensor, FLIPR). In kind it is cell-based. The note with it: HEK-293 cells with cloned glucagon receptor and cAMP biosensor; end point after 6 minutes. The protocol: The glucagon receptor was cloned into HEK-293 cells having a membrane bound cAMP biosensor (ACTOne™). The cells (14000 per well) were incubated (37° C., 5% CO2) overnight in 384-well plates. Next day the cells were loaded with a calcium responsive dye that only distributed into the cytoplasm. Probenecid, an inhibitor of the organic anion transporter, was added to prevent the dye from leaving the cell. A PDE inhibitor was added to prevent formatted cAMP from being degraded, The plates were placed into a […] and the glucagon analogues were added. End point data were collected after 6 minutes. An increase in intracellular cAMP was proportional to an increased in calcium concentrations in the cytoplasm. When calcium was bound the dry a fluorescence signal was generated. EC50-values were calculated in Prism5.
Turning to `CC(=O)N[C@@H](CCC(=O)N[C@@H](CCC(=O)N[C@@H](CCC(=O)N[C@@H](CCC(=O)NCCCC[C@H](NC(=O)[C@@H](NC(=O)[C@H](Cc1ccccc1)NC(=O)[C@H](CCC(=O)O)NC(=O)[C@H](CCC(N)=O)NC(=O)[C@H](C)NC(=O)[C@H](CCCNC(=N)N)NC(=O)[C@H](CCCNC(=N)N)NC(=O)[C@H](CO)NC(=O)[C@H](CCC(=O)O)NC(=O)[C@H](CC(C)C)NC(=O)[C@H](Cc1ccc(O)cc1)NC(=O)[C@H](CCCCN)NC(=O)[C@H](CO)NC(=O)[C@H](Cc1ccc(O)cc1)NC(=O)[C@H](CC(=O)O)NC(=O)[C@H](CO)NC(=O)[C@@H](NC(=O)[C@H](Cc1ccccc1)NC(=O)[C@@H](NC(=O)CNC(=O)[C@H](CCC(N)=O)NC(=O)[C@H](CO)NC(=O)[C@@H](N)Cc1c[nH]cn1)[C@@H](C)O)[C@@H](C)O)C(C)C)C(=O)N[C@@H](Cc1c[nH]c2ccccc12)C(=O)N[C@@H](CC(C)C)C(=O)N[C@@H](CC(C)C)C(=O)N[C@@H](CO)C(=O)N[C@H](C(=O)O)[C@@H](C)O)C(=O)O)C(=O)O)C(=O)O)C(=O)O` [Example 22, N^ε24-[(4S)-4-[[(4S)-4-[[(4S)-4-[[(4S)-4-acetamido-4-carboxybutanoyl]amino]-4-carboxybutanoyl]amino]-4-carboxybutanoyl]amino]-4-carboxybutanoyl]-[Glu15,Glu21,Lys24,Leu27,Ser28]-Glucagon] (H-HSQGTFTSDYSKYLESRRAQEFVK([γGlu-γGlu-γGlu-γGlu-Ac])WLLST-OH), a half-maximal effect (EC50) was put at 5.5 pM.

`CC(=O)N[C@@H](CCC(=O)N[C@@H](CCC(=O)N[C@@H](CCC(=O)N[C@@H](CCC(=O)NCCCC[C@H](NC(=O)[C@@H](NC(=O)[C@H](Cc1ccccc1)NC(=O)[C@H](CC(=O)O)NC(=O)[C@H](CCC(N)=O)NC(=O)[C@H](C)NC(=O)[C@H](CCCNC(=N)N)NC(=O)[C@H](CCCNC(=N)N)NC(=O)[C@@H](NC(=O)[C@H](CCC(=O)O)NC(=O)[C@H](CC(C)C)NC(=O)[C@H](Cc1ccc(O)cc1)NC(=O)[C@H](CCCCN)NC(=O)[C@H](CO)NC(=O)[C@H](Cc1ccc(O)cc1)NC(=O)[C@H](CC(=O)O)NC(=O)[C@H](CO)NC(=O)[C@@H](NC(=O)[C@H](Cc1ccccc1)NC(=O)[C@@H](NC(=O)CNC(=O)[C@H](Cc1c[nH]cn1)NC(=O)[C@H](CO)NC(=O)[C@@H](N)Cc1c[nH]cn1)[C@@H](C)O)[C@@H](C)O)[C@@H](C)O)C(C)C)C(=O)N[C@@H](Cc1c[nH]c2ccccc12)C(=O)N[C@@H](CC(C)C)C(=O)N[C@@H](CC(C)C)C(=O)N[C@@H](CO)C(=O)N[C@H](C(=O)O)[C@@H](C)O)C(=O)O)C(=O)O)C(=O)O)C(=O)O` [Example 31, N^ε24-[(4S)-4-[[(4S)-4-[[(4S)-4-[[(4S)-4-acetamido-4-carboxybutanoyl]amino]-4-carboxybutanoyl]amino]-4-carboxybutanoyl]amino]-4-carboxybutanoyl]-[His3,Glu15,Thr16,Lys24,Leu27,Ser28]-Glucagon] (H-HSHGTFTSDYSKYLETRRAQDFVK([γGlu-γGlu-γGlu-γGlu-Ac])WLLST-OH) had an EC50 of 13 pM. Next, `CC[C@H](C)[C@H](NC(=O)[C@H](CC(=O)O)NC(=O)[C@H](CC(C)C)NC(=O)[C@H](Cc1ccc(O)cc1)NC(=O)[C@H](CCCNC(=N)N)NC(=O)[C@H](CO)NC(=O)[C@H](Cc1ccc(O)cc1)NC(=O)[C@H](CC(=O)O)NC(=O)[C@H](CO)NC(=O)[C@@H](NC(=O)[C@H](Cc1ccccc1)NC(=O)[C@@H](NC(=O)CNC(=O)[C@H](Cc1c[nH]cn1)NC(=O)[C@H](CO)NC(=O)[C@@H](N)Cc1c[nH]cn1)[C@@H](C)O)[C@@H](C)O)C(=O)N[C@@H](CCCNC(=N)N)C(=O)N[C@@H](CCCNC(=N)N)C(=O)N[C@@H](C)C(=O)N[C@@H](C)C(=O)N[C@@H](CC(=O)O)C(=O)N[C@@H](Cc1ccccc1)C(=O)N[C@H](C(=O)N[C@@H](CCCCNC(=O)CC[C@H](NC(=O)CC[C@H](NC(=O)CC[C@H](NC(=O)CC[C@H](N)C(=O)O)C(=O)O)C(=O)O)C(=O)O)C(=O)N[C@@H](Cc1c[nH]c2ccccc12)C(=O)N[C@@H](CC(C)C)C(=O)N[C@@H](CC(C)C)C(=O)N[C@@H](CO)C(=O)N[C@H](C(=O)O)[C@@H](C)O)C(C)C` [Example 8, N^ε24-[(4S)-4-[[(4S)-4-[[(4S)-4-[[(4S)-4-amino-4-carboxybutanoyl]amino]-4-carboxybutanoyl]amino]-4-carboxybutanoyl]amino]-4-carboxybutanoyl]-[His3,Arg12,Ile16,Ala20,Lys24,Leu27,Ser28]-Glucagon] (H-HSHGTFTSDYSRYLDIRRAADFVK([γGlu-γGlu-γGlu-γGlu])WLLST-OH): 26.9 pM; `CC(=O)N[C@@H](CCC(=O)N[C@@H](CCC(=O)N[C@@H](CCC(=O)N[C@@H](CCC(=O)NCCCC[C@H](NC(=O)[C@@H](NC(=O)[C@H](Cc1ccccc1)NC(=O)[C@H](CC(=O)O)NC(=O)[C@H](CCC(N)=O)NC(=O)[C@H](C)NC(=O)[C@H](CCCNC(=N)N)NC(=O)[C@H](CCCNC(=N)N)NC(=O)[C@@H](NC(=O)[C@H](CC(=O)O)NC(=O)[C@H](CC(C)C)NC(=O)[C@H](Cc1ccc(O)cc1)NC(=O)[C@H](CCCCN)NC(=O)[C@H](CO)NC(=O)[C@H](Cc1ccc(O)cc1)NC(=O)[C@H](CC(=O)O)NC(=O)[C@H](CO)NC(=O)[C@@H](NC(=O)[C@H](Cc1ccccc1)NC(=O)[C@@H](NC(=O)CNC(=O)[C@H](CCC(N)=O)NC(=O)[C@H](CO)NC(=O)[C@@H](N)Cc1c[nH]cn1)[C@@H](C)O)[C@@H](C)O)[C@@H](C)O)C(C)C)C(=O)N[C@@H](Cc1c[nH]c2ccccc12)C(=O)N[C@@H](CC(C)C)C(=O)N[C@@H](CC(C)C)C(=O)N[C@@H](CO)C(=O)N[C@H](C(=O)O)[C@@H](C)O)C(=O)O)C(=O)O)C(=O)O)C(=O)O` [Example 30]: 6.5 pM; `CCCC(=O)N[C@@H](CCC(=O)N[C@@H](CCC(=O)N[C@@H](CCC(=O)N[C@@H](CCC(=O)NCCCC[C@H](NC(=O)[C@@H](NC(=O)[C@H](Cc1ccccc1)NC(=O)[C@H](CC(=O)O)NC(=O)[C@H](C)NC(=O)[C@H](C)NC(=O)[C@H](CCCNC(=N)N)NC(=O)[C@H](CCCNC(=N)N)NC(=O)[C@H](CC(C)C)NC(=O)[C@H](CC(=O)O)NC(=O)[C@H](CC(C)C)NC(=O)[C@H](Cc1ccc(O)cc1)NC(=O)[C@H](CCCNC(=N)N)NC(=O)[C@H](CO)NC(=O)[C@H](Cc1ccc(O)cc1)NC(=O)[C@H](CC(=O)O)NC(=O)[C@H](CO)NC(=O)[C@@H](NC(=O)[C@H](Cc1ccccc1)NC(=O)[C@@H](NC(=O)CNC(=O)[C@H](CCC(N)=O)NC(=O)[C@H](CO)NC(=O)[C@@H](N)Cc1c[nH]cn1)[C@@H](C)O)[C@@H](C)O)C(C)C)C(=O)N[C@@H](Cc1c[nH]c2ccccc12)C(=O)N[C@@H](CC(C)C)C(=O)N[C@@H](CC(C)C)C(=O)N[C@@H](CO)C(=O)N[C@H](C(=O)O)[C@@H](C)O)C(=O)O)C(=O)O)C(=O)O)C(=O)O` [Example 65, N^ε24-[(4S)-4-[[(4S)-4-[[(4S)-4-[[(4S)-4-(butanoylamino)-4-carboxybutanoyl]amino]-4-carboxybutanoyl]amino]-4-carboxybutanoyl]amino]-4-carboxybutanoyl]-[Arg^12,Leu^16,Ala^20,Lys^24,Leu^27,Ser^28]-Glucagon] (H-HSQGTFTSDYSRYLDLRRAADFVK([γGlu-γGlu-γGlu-γGlu-Butyryl])WLLST-OH): 21 pM.

Regarding `CC(C)C[C@H](NC(=O)[C@H](Cc1c[nH]c2ccccc12)NC(=O)[C@H](CCCCNC(=O)CC[C@H](NC(=O)CC[C@H](NC(=O)CC[C@H](NC(=O)CC[C@H](N)C(=O)O)C(=O)O)C(=O)O)C(=O)O)NC(=O)[C@@H](NC(=O)[C@H](Cc1ccccc1)NC(=O)[C@H](CC(=O)O)NC(=O)[C@H](CCC(N)=O)NC(=O)[C@H](C)NC(=O)[C@H](CCCNC(=N)N)NC(=O)[C@H](CCCNC(=N)N)NC(=O)[C@@H](NC(=O)[C@H](CC(=O)O)NC(=O)[C@H](CC(C)C)NC(=O)[C@H](Cc1ccc(O)cc1)NC(=O)[C@H](CCCCN)NC(=O)[C@H](CO)NC(=O)[C@H](Cc1ccc(O)cc1)NC(=O)[C@H](CC(=O)O)NC(=O)[C@H](CO)NC(=O)[C@@H](NC(=O)[C@H](Cc1ccccc1)NC(=O)[C@@H](NC(=O)CNC(=O)[C@H](Cc1c[nH]cn1)NC(=O)[C@H](CO)NC(=O)[C@@H](N)Cc1c[nH]cn1)[C@@H](C)O)[C@@H](C)O)[C@@H](C)O)C(C)C)C(=O)N[C@@H](CC(C)C)C(=O)N[C@@H](CO)C(=O)N[C@H](C(=O)O)[C@@H](C)O` [Example 33, N^ε24-[(4S)-4-[[(4S)-4-[[(4S)-4-[[(4S)-4-amino-4-carboxybutanoyl]amino]-4-carboxybutanoyl]amino]-4-carboxybutanoyl]amino]-4-carboxybutanoyl]-[His3,Thr16,Lys24,Leu27,Ser28]-Glucagon] (H-HSHGTFTSDYSKYLDTRRAQDFVK([γGlu-γGlu-γGlu-γGlu])WLLST-OH), it took 8 pM to reach a half-maximal effect (EC50).

`CC(=O)N[C@@H](CCC(=O)N[C@@H](CCC(=O)N[C@@H](CCC(=O)N[C@@H](CCC(=O)NCCCC[C@H](NC(=O)[C@@H](NC(=O)[C@H](Cc1ccccc1)NC(=O)[C@H](CC(=O)O)NC(=O)[C@H](CCC(N)=O)NC(=O)[C@H](C)NC(=O)[C@H](CCCNC(=N)N)NC(=O)[C@H](CCCNC(=N)N)NC(=O)[C@@H](NC(=O)[C@H](CC(=O)O)NC(=O)[C@H](CC(C)C)NC(=O)[C@H](Cc1ccc(O)cc1)NC(=O)[C@H](CCCCN)NC(=O)[C@H](CO)NC(=O)[C@H](Cc1ccc(O)cc1)NC(=O)[C@H](CC(=O)O)NC(=O)[C@H](CO)NC(=O)[C@@H](NC(=O)[C@H](Cc1ccccc1)NC(=O)[C@@H](NC(=O)CNC(=O)[C@H](CCC(N)=O)NC(=O)[C@H](CO)NC(=O)[C@@H](N)Cc1c[nH]cn1)[C@@H](C)O)[C@@H](C)O)C(C)C)C(C)C)C(=O)N[C@@H](Cc1c[nH]c2ccccc12)C(=O)N[C@@H](CC(C)C)C(=O)N[C@@H](CC(C)C)C(=O)N[C@@H](CC(N)=O)C(=O)N[C@H](C(=O)O)[C@@H](C)O)C(=O)O)C(=O)O)C(=O)O)C(=O)O` [Example 16, N^ε24-[(4S)-4-[[(4S)-4-[[(4S)-4-[[(4S)-4-acetamido-4-carboxybutanoyl]amino]-4-carboxybutanoyl]amino]-4-carboxybutanoyl]amino]-4-carboxybutanoyl]-[Val16,Lys24,Leu27]-Glucagon]: the concentration for a half-maximal effect (EC50) came to 6.5 pM.

Values taken from patent publication US20140031278A1, “Novel Glucagon Analogues” (NOVO NORDISK A/S, priority 2011, published 2014).
